Assays:
[1] = target: GDP-bound KRAS protein (aa 1-169), containing both G12D and C118A amino acid substitutions (Homo sapiens, UniProt P01116, C118A/G12D); assay: KRAS G12D Coupled Nucleotide Exchange Assay; assay type: biochemical; conditions: 2 h compound pre-incubation
Description: Following compound pre-incubation, purified SOS protein (aa 564-1049) and GTP (Roche 10106399001) were added to the assay wells and incubated for an additional 30 min. […] The assay plates were then read on a PerkinElmer EnVision Multilabel Reader, using AlphaScreen® technology, and data were analyzed using a 4-parameter logistic model to calculate IC50 values.

[2] = test system: Phosphorylation of ERK1/2 in AsPC-1 cells; assay: Phospho-ERK1/2 MSD Assay (AsPC-1 cells); assay type: cell-based; conditions: Homo sapiens, ASPC1, 2 h, 2 hours treatment, read-out: p-ERK (AsPC-1 cells) IC50
Description: (§1) AsPC-1 (ATCC® CRL-1682™) cells were cultured in RPMI 1640 Medium (ThermoFisher Scientific 11875093) containing 10% fetal bovine serum (ThermoFisher Scientific 16000044) and 1× penicillin-streptomycin-glutamine (ThermoFisher Scientific 10378016). Sixteen hours prior to compound treatment, AsPC-1 cells were seeded in 96-well cell culture plates at a density of 25,000 cells/well and incubated at 37° C., 5% CO2. A compound dose-response titration was diluted in growth media, added to appropriate wells of a cell culture plate, and then incubated at 37° C., 5% CO2 for 2 hours. Following compound treatment, cells were washed with ice-cold Dulbecco's phosphate-buffered saline, no Ca^2+ or Mg^2+ (ThermoFisher Scientific 14190144), and then lysed in RIPA buffer (50 mM Tris-HCl pH 7.5, 1% Igepal, 0.5% sodium deoxycholate, 150 mM NaCl, and 0.5% sodium dodecyl sulfate) containing protease inhibitors (Roche 4693132001) and phosphatase inhibitors (Roche 4906837001). Phosphorylation of ERK1/2 in compound-treated lysates was assayed using Phospho-ERK1/2 Whole Cell Lysate kits (Meso Scale Discovery K151DWD) according to the manufacturer's protocol. Assay plates were read on a Meso Scale Discovery Sector Imager 6000, and data were analyzed using a 4-parameter logistic model to calculate IC50 values.

[3] = test system: Phosphorylation of ERK1/2 in A-427 cells; assay: Phospho-ERK1/2 MSD Assay (A-427 cells); assay type: cell-based; conditions: Homo sapiens, A-427, 2 h, 2 h treatment, read-out: p-ERK (A427 cells) IC50
Description: as §1, with “A-427” for “AsPC-1”, “HTB-53™)” for “CRL-1682™)”, “h.” for “hours.”

[4] = target: His-tagged KRAS G12D protein (Homo sapiens, UniProt P01116, G12D); assay: KRAS G12D TR-FRET Assay; assay type: binding
Description: Compounds of interest were prepared in a dose-response titration in DMSO, and 80 nL were added via Labcyte Echo to each well of a 384-well plate (Perkin Elmer 6008280). […] The plate was incubated for 30 minutes at room temperature. Biotinylated KRPep-2d substrate (Amgen) was diluted to 20 nM in Assay Buffer and 2 μL was added to all wells and incubated for 1 h at room temperature. Detection Reagent (0.4 nM LANCE Eu-W1024 Anti-6xHis (Perkin Elmer AD0401), 5 nM streptavidin-d2 (Cisbio 610SADLA)) was prepared in Assay Buffer, then 4 μL was added to the plate and incubated for 1 h at room temperature. Plates were read using PerkinElmer EnVision (ex: 320 nm, em1: 665 nm, em2: 615 nm) and em1/em2 data was used to generate curve fits using a 4-parameter logistic model to calculate IC50 values.

His-tagged KRAS G12D protein, sequence (P01116 1-188 isoform P01116-2 G12D): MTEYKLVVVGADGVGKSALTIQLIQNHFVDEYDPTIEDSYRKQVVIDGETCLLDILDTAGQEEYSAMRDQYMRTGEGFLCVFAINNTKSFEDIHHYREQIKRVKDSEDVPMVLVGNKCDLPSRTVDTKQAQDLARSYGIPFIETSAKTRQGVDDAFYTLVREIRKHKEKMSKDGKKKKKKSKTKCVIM
GDP-bound KRAS protein (aa 1-169), containing both G12D and C118A amino acid substitutions, sequence (P01116 1-169 isoform P01116-2 G12D/C118A): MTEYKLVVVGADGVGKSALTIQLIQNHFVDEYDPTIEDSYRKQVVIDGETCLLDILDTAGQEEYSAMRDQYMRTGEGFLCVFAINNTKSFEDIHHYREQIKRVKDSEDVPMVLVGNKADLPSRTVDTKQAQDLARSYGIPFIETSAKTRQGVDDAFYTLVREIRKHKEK

Row | SMILES | Avg 2 h Coupled Exchange IC50 [1] [nM] | IC50 [2] [nM] | IC50 [3] [nM] | IC50 [4] [nM]
1 | CCc1c(F)ccc2cc(O)cc(-c3cc4nc(OC[C@@]56CCCN5C[C@H](F)C6)nc(N5C[C@@H]6CC[C@H]5CN6)c4cc3F)c12 [Example 174, 4-(4-((1S,4S)-2,5-diazabicyclo[2.2.2]octan-2-yl)-6-fluoro-2-(((2R,7aS)-2-fluorotetrahydro-1H-pyrrolizin-7a(5H)-yl)methoxy)quinazolin-7-yl)-5-ethyl-6-fluoronaphthalen-2-ol] | 5 | 64 | 57 | 4
2 | CCc1c(F)ccc2cc(O)cc(-c3c(F)cc4c(N5CCC6CCC(C5)N6)nc(OC[C@@]56CCCN5C[C@H](F)C6)nc4c3F)c12 (stereo partly drawn) [Example 153, 4-(4-(3,9-diazabicyclo[4.2.1]nonan-3-yl)-6,8-difluoro-2-(((2R,7aS)-2-fluorotetrahydro-1H-pyrrolizin-7a(5H)-yl)methoxy)quinazolin-7-yl)-5-ethyl-6-fluoronaphthalen-2-ol] | 3 | 419 | 349 | 6
3 | CC(O)COc1nc(N2C[C@H]3CC[C@@H](C2)N3)c2cc(F)c(-c3cc(O)cc4ccccc34)c(F)c2n1 (stereo partly drawn) [Example 125, 4-(4-((1R,5S)-3,8-diazabicyclo[3.2.1]octan-3-yl)-6,8-difluoro-2-(2-hydroxypropoxy)quinazolin-7-yl)naphthalen-2-ol] | 39 | > 10000 | > 10000 | 114
4 | CCc1c(F)ccc2cc(O)cc(-c3c(F)cc4c(N5C[C@H]6CC[C@@H](C5)N6)nc(OC[C@@H]5CC(F)(F)CN5)nc4c3F)c12 [Example 217, 4-(4-((1R,5S)-3,8-diazabicyclo[3.2.1]octan-3-yl)-2-(((S)-4,4-difluoropyrrolidin-2-yl)methoxy)-6,8-difluoroquinazolin-7-yl)-5-ethyl-6-fluoronaphthalen-2-ol] | 4 | 414 | 218 | 4
5 | Oc1cc(-c2ccc3c(N4C[C@@H]5CC[C@H]4CN5)nc(OC[C@@]45CCCN4C[C@H](F)C5)nc3c2F)c2c(F)c(F)ccc2c1 [Example 140, 4-(4-((1S,4S)-2,5-diazabicyclo[2.2.2]octan-2-yl)-8-fluoro-2-(((2R,7aS)-2-fluorotetrahydro-1H-pyrrolizin-7a(5H)-yl)methoxy)quinazolin-7-yl)-5,6-difluoronaphthalen-2-ol] | 1 | 70 | 11 | 2
6 | Oc1cc(-c2cc3nc(OC[C@@]45CCCN4C[C@H](F)C5)nc(N4C[C@@H]5CC[C@H]4CN5)c3cc2F)c2c(F)c(F)ccc2c1 [Example 173, 4-(4-((1S,4S)-2,5-diazabicyclo[2.2.2]octan-2-yl)-6-fluoro-2-(((2R,7aS)-2-fluorotetrahydro-1H-pyrrolizin-7a(5H)-yl)methoxy)quinazolin-7-yl)-5,6-difluoronaphthalen-2-ol] | 3 | 366 | 153 | 2
7 | C#Cc1c(F)ccc2cc(O)cc(-c3c(F)cc4c(N5C[C@H]6CC[C@@H](C5)N6)nc(OC[C@@]56CCCN5C[C@H](F)C6)nc4c3F)c12 [Example 189, 4-(4-((1R,5S)-3,8-diazabicyclo[3.2.1]octan-3-yl)-6,8-difluoro-2-(((2R,7aS)-2-fluorotetrahydro-1H-pyrrolizin-7a(5H)-yl)methoxy)quinazolin-7-yl)-5-ethynyl-6-fluoronaphthalen-2-ol] | 3 | 2 | 1 | 4
8 | CCc1c(F)ccc2cc(O)cc(-c3c(O)cc4c(N5[C@@H]6CC[C@H]5CNC6)nc(OC[C@@]56CCCN5C[C@H](F)C6)nc4c3F)c12 [Example 200, 4-((1R,5S)-3,8-diazabicyclo[3.2.1]octan-8-yl)-7-(8-ethyl-7-fluoro-3-hydroxynaphthalen-1-yl)-8-fluoro-2-(((2R,7aS)-2-fluorotetrahydro-1H-pyrrolizin-7a(5H)-yl)methoxy) quinazolin-6-ol] | 4 | 54 | 11 | 4
9 | C#Cc1cccc2cc(O)cc(-c3ccc4c(N5[C@@H]6CC[C@H]5CNC6)nc(OC[C@@]56CCCN5C[C@H](F)C6)nc4c3F)c12 [Example 99, 4-(4-((1R,5S)-3,8-Diazabicyclo[3.2.1]octan-8-yl)-8-fluoro-2-(((2R,7aS)-2-fluorotetrahydro-1H-pyrrolizin-7a(5H)-yl)methoxy)quinazolin-7-yl)-5-ethynylnaphthalen-2-ol] | 3 | 19 | 5 | 3
10 | CCc1c(F)ccc2cc(O)cc(-c3ccc4c(N5C[C@H]6CC[C@@H](C5)N6)nc(OCC(C)(C)O)nc4c3F)c12 [Example 131, 4-(4-((1R,5S)-3,8-diazabicyclo[3.2.1]octan-3-yl)-8-fluoro-2-(2-hydroxy-2-methylpropoxy)quinazolin-7-yl)-5-ethyl-6-fluoronaphthalen-2-ol] | 5 | 926 | 682 | 9
11 | CCc1cccc2cc(O)cc(-c3c(Cl)cc4c(N5C[C@@H]6CC[C@H]5CN6)nc(OC[C@@]56CCCN5C[C@H](F)C6)nc4c3F)c12 [Example 130, 4-(4-((1S,4S)-2,5-diazabicyclo[2.2.2]octan-2-yl)-6-chloro-8-fluoro-2-(((2R,7aS)-2-fluorotetrahydro-1H-pyrrolizin-7a(5H)-yl)methoxy)quinazolin-7-yl)-5-ethylnaphthalen-2-ol] | 5 | 102 | 52 | 3
12 | Cc1c(-c2cc(O)cc3ccccc23)ccc2c(N3C[C@H]4C[C@@H](C3)N4)nc(OC[C@@]34CCCN3C[C@H](F)C4)nc12 [Example 5, 4-(4-((1R,5S)-3,6-diazabicyclo[3.1. 1]heptan-3-yl)-2-(((2R,7aS)-2-fluorotetrahydro-1H-pyrrolizin-7a(5H)-yl)methoxy)-8-methylquinazolin-7-yl)naphthalen-2-ol] | 19 | 2970 | 2150 | 43
13 | Oc1cc(-c2ccc3c(N4[C@@H]5CC[C@H]4CNC5)nc(OC[C@]45CCCN4C[C@H](F)C5)nc3c2F)c2ccccc2c1 [Example 3, 4-(4-((1R,5S)-3,8-diazabicyclo[3.2. 1]octan-8-yl)-8-fluoro-2-(((2R,7aR)-2-fluorotetrahydro-1H-pyrrolizin-7a(5H)-yl)methoxy)quinazolin-7-yl)naphthalen-2-ol] | 5 | 812 | 650 | 10
